“And” between values parts separate entries of the source, which are not always exact repeats. Equal entries are not always repeated.
How the values were obtained:
human PLCβ4 = biological target: T1, human PLCβ4 (Homo sapiens, UniProt Q15147); experiment: In vitro PLC assay using fluorogenic substrate Compound 1, PLCβ4; format: biochemical; details: for IC50: purified PLCβ4, fluorogenic substrate Compound 1, read-out: IC50, inhibition of PLCβ4 (hydrolysis of Compound 1)
T1 construct: expressing the full-length polypeptides of human PLCε, PLCβ4, PLCδ1 and PLCγ1 as FLAG fusions; made in house; host or cells: Expi293F cells
T1 sequence (Q15147 1-1175): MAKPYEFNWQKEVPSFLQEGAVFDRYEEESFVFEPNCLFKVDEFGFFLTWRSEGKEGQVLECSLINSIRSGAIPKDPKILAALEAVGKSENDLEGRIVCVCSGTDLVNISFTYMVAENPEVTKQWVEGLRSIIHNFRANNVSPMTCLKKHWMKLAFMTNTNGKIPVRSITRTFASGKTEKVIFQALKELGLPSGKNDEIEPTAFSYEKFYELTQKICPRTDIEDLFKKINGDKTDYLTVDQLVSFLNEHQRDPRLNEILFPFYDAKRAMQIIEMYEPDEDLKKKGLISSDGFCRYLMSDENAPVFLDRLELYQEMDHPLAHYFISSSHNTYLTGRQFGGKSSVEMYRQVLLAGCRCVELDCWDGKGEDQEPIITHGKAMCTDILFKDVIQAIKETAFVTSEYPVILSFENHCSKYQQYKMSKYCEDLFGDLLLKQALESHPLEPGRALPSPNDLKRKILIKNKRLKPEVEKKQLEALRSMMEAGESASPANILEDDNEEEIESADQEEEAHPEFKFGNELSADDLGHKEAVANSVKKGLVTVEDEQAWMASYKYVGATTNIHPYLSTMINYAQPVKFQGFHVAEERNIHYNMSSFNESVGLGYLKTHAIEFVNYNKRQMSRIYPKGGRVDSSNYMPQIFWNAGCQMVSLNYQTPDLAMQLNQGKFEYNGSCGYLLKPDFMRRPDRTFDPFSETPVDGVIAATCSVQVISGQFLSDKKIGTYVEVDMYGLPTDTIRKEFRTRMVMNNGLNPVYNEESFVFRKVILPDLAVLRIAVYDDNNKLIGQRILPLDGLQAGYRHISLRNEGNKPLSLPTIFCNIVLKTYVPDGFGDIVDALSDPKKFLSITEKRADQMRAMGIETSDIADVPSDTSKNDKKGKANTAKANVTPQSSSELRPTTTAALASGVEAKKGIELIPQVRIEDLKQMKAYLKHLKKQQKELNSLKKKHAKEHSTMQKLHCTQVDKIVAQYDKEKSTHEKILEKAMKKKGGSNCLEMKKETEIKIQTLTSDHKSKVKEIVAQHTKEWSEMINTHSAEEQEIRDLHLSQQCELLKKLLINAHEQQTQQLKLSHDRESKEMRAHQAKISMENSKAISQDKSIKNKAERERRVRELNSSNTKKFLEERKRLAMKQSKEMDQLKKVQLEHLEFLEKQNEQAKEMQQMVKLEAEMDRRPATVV
Protocol: (§1) Ten µl of 2 × substrate solutions (50 mM HEPES pH7.2, 200 mM NaCl, 0.2 mM CaCl2, 0.4 mM DTT, 0.4 µM EDTA, 0.02% gelatin, 0.2% sodium cholate and 60 µM Compound 1) were added to each well of a 384-well plate (CONING #3573) containing 10 µl of purified PLCε (120 ng) and incubated with shaking at 30 °C for 3 h. After terminating the reaction by the addition of 2 µl of 5 mM EDTA, the fluorescence emission was measured at 520 nm with the excitation at 485 nm by a microplate reader (POLARstar Omega-25). For measuring inhibition by compounds for HTS, the reactions were conducted at RIKEN Center for Sustainable Resource Science (CSRS) as described above except that 5 µl of compound solution and 5 µl of purified PLCe (120 ng) were added to each well. Solution dispensing and fluorescence detection were conducted by using an automated dispenser (EDR-384, Biotec) and a hybrid multi-mode microplate reader (Synergy H4, Biotec), respectively. For determination of the IC50 values for ZPT and Zn^2+, the EDTA concentration was reduced to one-tenth to avoid its zinc-chelating effect. For assay of the other PLC classes, the reactions were performed similarly except that PLCβ4 (5 ng), PLCδ1 (0.1 ng) or PLCγ1 (0.3 ng) was used instead of PLCε.

human PLCδ1 = biological target: T2, human PLCδ1 (Homo sapiens, UniProt P51178); experiment: In vitro PLC assay using fluorogenic substrate Compound 1, PLCδ1; format: biochemical; details: for IC50: purified PLCδ1, fluorogenic substrate Compound 1, read-out: IC50, inhibition of PLCδ1 (hydrolysis of Compound 1)
T2 construct: expressing the full-length polypeptides of human PLCε, PLCβ4, PLCδ1 and PLCγ1 as FLAG fusions; made in house; host or cells: Expi293F cells
T2 sequence (P51178 1-756): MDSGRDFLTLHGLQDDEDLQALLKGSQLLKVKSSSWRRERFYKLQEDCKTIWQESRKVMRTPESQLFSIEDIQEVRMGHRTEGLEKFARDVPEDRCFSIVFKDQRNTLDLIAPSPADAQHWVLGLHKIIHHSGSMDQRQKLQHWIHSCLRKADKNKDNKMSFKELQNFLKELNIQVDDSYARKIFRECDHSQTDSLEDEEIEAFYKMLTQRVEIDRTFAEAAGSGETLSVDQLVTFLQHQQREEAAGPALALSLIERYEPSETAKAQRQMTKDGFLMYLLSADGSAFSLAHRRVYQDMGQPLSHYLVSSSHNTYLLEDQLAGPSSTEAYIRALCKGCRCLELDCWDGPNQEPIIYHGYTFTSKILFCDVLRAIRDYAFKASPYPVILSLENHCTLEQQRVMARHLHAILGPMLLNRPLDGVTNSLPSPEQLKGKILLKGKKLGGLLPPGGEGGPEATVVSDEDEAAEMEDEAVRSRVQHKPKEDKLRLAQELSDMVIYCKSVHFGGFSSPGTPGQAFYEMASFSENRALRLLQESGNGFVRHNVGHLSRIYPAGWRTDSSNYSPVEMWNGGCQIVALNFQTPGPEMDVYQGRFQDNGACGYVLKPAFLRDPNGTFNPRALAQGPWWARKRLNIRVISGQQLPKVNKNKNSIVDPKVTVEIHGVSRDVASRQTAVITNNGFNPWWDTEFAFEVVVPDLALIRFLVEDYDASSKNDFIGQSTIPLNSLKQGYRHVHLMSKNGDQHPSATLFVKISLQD
Protocol: as §1

[1] = Compound 1 as substrate, varying concentrations

## C[n+]1cc2c3c(ccc2c2ccc4cc5c(cc4c21)OCO5)OCO3 [Sanguinarine, sanguinarine]
Human PLCβ4
  IC50: 80 µM and 79.7 µM
Human PLCδ1
  IC50: 48 µM and 47.8 µM

## O=S(=O)([O-])[O-].[Zn+2] [ZnSO4]
Human PLCβ4; [1]
  inhibitory activity toward PLCβ: without exhibiting any noticeable inhibitory activities
Human PLCδ1; [1]
  inhibitory activity toward PLCδ: without exhibiting any noticeable inhibitory activities

## COc1ccc2c(c[n+](C)c3c4cc5c(cc4ccc23)OCO5)c1OC [chelerythrine]
Human PLCβ4
  IC50: 40 µM
Human PLCδ1
  IC50: 7.3 µM

## CCCCCCOc1ccc2c(c1)Oc1cc(OP(=O)(O)O[C@H]3[C@H](O)[C@@H](O)[C@H](OP(=O)(O)O)[C@@H](O)[C@H]3O)ccc1C21OC(=O)c2ccccc21 (some centres unmarked) [compound 1]
Human PLCβ4
  IC50: 3.7 µM
Human PLCδ1
  IC50: 0.4 µM

— paper PMC12647759 (Scientific Reports, 2025)
